Earlier results on two molecules are cited in US20020022024A1, “Hemoglobinase inhibitors and methods of use” (priority 2000, published 2002).

The test system of one data set is schistosomules. The following applies: added to culture media, in comparison to controls; Zerda et al. 1988.
Data set [1] has as its target T1, S. mansoni cathepsin B, Sm31 (Schistosoma mansoni, UniProt P25792).
T1 sequence (P25792 89-340): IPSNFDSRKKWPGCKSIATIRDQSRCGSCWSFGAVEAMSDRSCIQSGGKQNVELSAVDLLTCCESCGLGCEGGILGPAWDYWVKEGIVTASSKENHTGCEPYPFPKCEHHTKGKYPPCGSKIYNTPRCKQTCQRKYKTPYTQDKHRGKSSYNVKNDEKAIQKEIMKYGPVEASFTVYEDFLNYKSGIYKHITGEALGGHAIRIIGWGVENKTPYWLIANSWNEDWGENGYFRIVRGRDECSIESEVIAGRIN
The following applies: short synthetic substrate; Klinkert et al. 1994.

Turning to `CC(C)C[C@H](NC(=O)[C@H]1O[C@@H]1C(=O)O)C(=O)NCCCCN` [EP459], the “death rate of schistosomules” value with schistosomules is given as “increased the death rate of schistosomules”.

Turning to `CSCCC(NC(=O)C(Cc1c[nH]c2ccccc12)NC(=O)OCc1ccccc1)C(=O)C=[N+]=[N-]` (stereo not drawn) [Z-Trp-Met-CHN2], the “inhibitor potency on Sm31 relative to a derivative of E64” value in data set [1] is “more potent inhibitor of Sm31”.
